Tests used:
Assay type in all cases: binding
[1] = tested on: two different monoclonal antibodies (MAbs) and a commercially available Fc-fragment; test: STD NMR screening for affinity towards IgG related proteins
Experimental: (§1) The screening procedure was based on in vitro screening using two independent in solution analytical techniques relying on saturation difference transfer NMR (STD NMR) and Surface Plasmon Resonace (SPR) methods.
In the NMR screen 69 substances were tested for affinity towards two different monoclonal antibodies (MAbs) and a commercially available Fc-fragment. Unspecific protein binding was investigated by testing for affinity towards α-amylase. Compounds that were found having affinity towards all three IgG related proteins, but no affinity towards α-amylase were assigned as potential candidates for affinity ligands towards the Fc-part of IgG.
(§2) Further structures (commercially available compounds) surrounding compound I were investigated in solution in order to optimize the affinity ligand candidate. These compounds were subject to a corresponding SPR and NMR analysis for affinity as was presented above. However this time only the Fc-fragment was used in the NMR screening while the SPR analysis was performed with the corresponding test proteins as in the first selection.

[2] = tested on: monoclonal antibody (IgG); test: SPR screen, monoclonal antibody
Experimental: as §1
(§3) In the SPR screen 53 compounds were tested (non-soluble substances were excluded) for affinity towards a monoclonal antibody and a commercially available Fc-fragment. Analysis data were corrected for the different molecular weights and are presented as percentage of the theoretical maximal response.
(§4) In order to select potential candidates for further investigations SPR data were arranged in such a way that all substances with a response higher than 10% for both Fc fragment and IgG were selected as potential candidates. These compounds were compared with the ones indicated by the NMR-screening. It turned out that most of the SPR derived hits had been rejected in NMR screen due to unspecific binding towards α-amylase.
as §2

Fc-fragment = test: SPR screen, Fc-fragment
Experimental: as §1, §3, §4, §2

CCOC(=O)c1c[nH]c2ncnn2c1=O [Compound II]
NMR affinity ([1]; second selection, only the Fc-fragment used in the NMR screening): positive by NMR | ranking for affinity towards IgG molecule as indicated by SPR ([2]; second selection): high ranking | ranking for affinity towards Fc-fragment by SPR (Fc-fragment; second selection): at least medium ranking

CC(=O)Nc1nc2[nH]c(C)c(Cc3ccccc3)c(=O)n2n1 [Compound I]
outcome of NMR screen (affinity towards all three IgG related proteins, no affinity towards α-amylase) ([1]; STD NMR, two MAbs and Fc-fragment): selected as potential affinity candidate by both methods | SPR response, percentage of the theoretical maximal response ([2]; IgG (monoclonal antibody), corrected for molecular weight): higher than 10% | SPR response, percentage of the theoretical maximal response (Fc-fragment; Fc fragment, corrected for molecular weight): higher than 10%

Source: patent US7625838B2, “[1, 2, 4] Triazolo [1, 5-A] pyrimidine derivatives as chromatographic adsorbent for the selective adsorption of IGG” (GE Healthcare Bio-Sciences AB, priority 2005, dated 2009)
